Results taken from US5198433A, “Lactamimides as calcium antagonists” (Merrell Dow Pharmaceuticals Inc., priority 1992, dated 1993).
Each block holds one compound with its values, some of them ahead of it.

How the values were obtained:
[1] = molecular target: T1, K^+ -depolarized guinea pig ileum or taenia (Cavia porcellus); assay: Antagonism of Ca^++ -induced contractions of K^+ -depolarized guinea pig taenia or ileum; type: cell-based; conditions: for pA2: Table 1, guinea pig ileum or taenia, K^+ -depolarized, Ca^++ -induced contraction, Arunlakshana & Schild; for mean pA2 value (95% confidence interval), Schild plot / mean slope (±S.D.) of Schild plot: FIG. 6, 40 mM K^+ -depolarized guinea pig ileum
T1 construct: pieces of ileum, 2 cm in length, from male guinea pigs (200-400 g) were set up in isolated organ baths; from tissue; host or cells: strips of taenia from the caecum or pieces of ileum of male guinea pigs
Protocol: Strips of taenia from the caecum or pieces of ileum, 2 cm in length, from male guinea pigs (200-400 g) were set up in isolated organ baths in Ca^++ -free K^+ Tyrode's solution (mM NaCl 137, KCl 40, NaH2 PO4 0.4, NaHCO3 11.9, glucose 5.5) and gassed with 95% O2, 5% CO2 at 37° C. Contractions were measured with isotonic transducers with a 1 g load. Cumulative dose-response curves were obtained. Tissues were then washed and incubated with the compounds for 20-25 minutes and then Ca^++ concentration response curves re-established. […] Dose ratios were determined graphically at ED50 values from the Ca^++ dose-response curve and Schild plots were constructed to determine pA2 value using inverse regression line analysis. Alternatively, when only one concentration of an antagonist was used, pA2 values were calculated according to the method of J. M. Van Rossum, Arch. Int. Pharmacodyn Ther. 143: 299-330 (1963).

[2] = molecular target: [^3 H]d-cis-diltiazem binding to rat whole brain membranes (calcium ion-channel protein); assay: [^3 H]d-cis-Diltiazem binding assay (displacement from rat whole brain membranes); set-up: species or system rat (male Sprague-Dawley); conditions: for pKi: Table 1, displacement of 3H diltiazem, rat brain membranes, n = 3, Cheng & Prusoff; for IC50: ligand […]
Protocol: The whole brain from male Sprague-Dawley rats (200-300 g) was dissected and homogenized in cold 50 mM Tris-HCl buffer (pH 7.4) for 2 x 30 second periods by Polytron (Brinkmann, setting No. 5). The homogenate was washed 2 times (48,000 ×g for 10 minutes, 4° C.) with intermittent resuspension of the pellet in fresh buffer. The final pellet was resuspended to an original tissue concentration of 100 mg/ml in Tris-HCl buffer. […] The reaction was terminated by rapid filtration under a vacuum through 0.05% polyethylenimine-pretreated Whatman GF/B glass fiber filters. Filters were immediately washed 2 times with 4 ml of cold Tris-HCl buffer. Pretreatment of the filters with 0.05% polyethylenimine served to eliminate [^3 H]d-cis-diltiazem binding to the filter. The filters were dried and the radioactivity in the filters was extracted overnight in scintillation fluid.

[3] = molecular target: T2, [^3 H]nitrendipine binding to rat heart membranes (calcium ion-channel protein) (Rattus norvegicus, UniProt P22002); assay: [^3 H]Nitrendipine binding assay (enhancement of binding to rat heart membranes); set-up: species or system rat (male Sprague-Dawley); conditions: ligand 0.1 nM, mean ± SEM; for activity at 1 µM: 10^-6 M; for activity at 0.1 µM: 10^-7 M
T2 construct: Membranes were prepared from the hearts of male Sprague-Dawley rats; from tissue; host or cells: heart membranes of male Sprague-Dawley rats
Protocol: Membranes were prepared from the hearts of male Sprague-Dawley rats and [^3 H]nitrendipine binding was conducted as described in detail by H. R. Lee, et al., J. Pharmacol Exp. Ther. 233:611-616, (1985), as modified by F. J. Ehlert, et al., Biochem. Biophys. Rec. Common. 104:937-943, (1982). The ability of compounds tested at 10^-6 and 10^-7 M to enhance [^3 H]nitredepine binding was taken as indicative of diltiazem-like calcium antagonistic properties.
Values are the mean ± SEM of single experiments run in triplicate at
the concentrations of drugs indicated. Ligand concentration was 0.1 nM an
control specific binding was 49.6 ± 1.7 fmol/mg protein.

[4] = tested on: calcium ion-channel protein; conditions: [^3 H]nitrendipine as the ligand; cited from earlier work

T2 sequence (P22002 whole entry, other chains not shown): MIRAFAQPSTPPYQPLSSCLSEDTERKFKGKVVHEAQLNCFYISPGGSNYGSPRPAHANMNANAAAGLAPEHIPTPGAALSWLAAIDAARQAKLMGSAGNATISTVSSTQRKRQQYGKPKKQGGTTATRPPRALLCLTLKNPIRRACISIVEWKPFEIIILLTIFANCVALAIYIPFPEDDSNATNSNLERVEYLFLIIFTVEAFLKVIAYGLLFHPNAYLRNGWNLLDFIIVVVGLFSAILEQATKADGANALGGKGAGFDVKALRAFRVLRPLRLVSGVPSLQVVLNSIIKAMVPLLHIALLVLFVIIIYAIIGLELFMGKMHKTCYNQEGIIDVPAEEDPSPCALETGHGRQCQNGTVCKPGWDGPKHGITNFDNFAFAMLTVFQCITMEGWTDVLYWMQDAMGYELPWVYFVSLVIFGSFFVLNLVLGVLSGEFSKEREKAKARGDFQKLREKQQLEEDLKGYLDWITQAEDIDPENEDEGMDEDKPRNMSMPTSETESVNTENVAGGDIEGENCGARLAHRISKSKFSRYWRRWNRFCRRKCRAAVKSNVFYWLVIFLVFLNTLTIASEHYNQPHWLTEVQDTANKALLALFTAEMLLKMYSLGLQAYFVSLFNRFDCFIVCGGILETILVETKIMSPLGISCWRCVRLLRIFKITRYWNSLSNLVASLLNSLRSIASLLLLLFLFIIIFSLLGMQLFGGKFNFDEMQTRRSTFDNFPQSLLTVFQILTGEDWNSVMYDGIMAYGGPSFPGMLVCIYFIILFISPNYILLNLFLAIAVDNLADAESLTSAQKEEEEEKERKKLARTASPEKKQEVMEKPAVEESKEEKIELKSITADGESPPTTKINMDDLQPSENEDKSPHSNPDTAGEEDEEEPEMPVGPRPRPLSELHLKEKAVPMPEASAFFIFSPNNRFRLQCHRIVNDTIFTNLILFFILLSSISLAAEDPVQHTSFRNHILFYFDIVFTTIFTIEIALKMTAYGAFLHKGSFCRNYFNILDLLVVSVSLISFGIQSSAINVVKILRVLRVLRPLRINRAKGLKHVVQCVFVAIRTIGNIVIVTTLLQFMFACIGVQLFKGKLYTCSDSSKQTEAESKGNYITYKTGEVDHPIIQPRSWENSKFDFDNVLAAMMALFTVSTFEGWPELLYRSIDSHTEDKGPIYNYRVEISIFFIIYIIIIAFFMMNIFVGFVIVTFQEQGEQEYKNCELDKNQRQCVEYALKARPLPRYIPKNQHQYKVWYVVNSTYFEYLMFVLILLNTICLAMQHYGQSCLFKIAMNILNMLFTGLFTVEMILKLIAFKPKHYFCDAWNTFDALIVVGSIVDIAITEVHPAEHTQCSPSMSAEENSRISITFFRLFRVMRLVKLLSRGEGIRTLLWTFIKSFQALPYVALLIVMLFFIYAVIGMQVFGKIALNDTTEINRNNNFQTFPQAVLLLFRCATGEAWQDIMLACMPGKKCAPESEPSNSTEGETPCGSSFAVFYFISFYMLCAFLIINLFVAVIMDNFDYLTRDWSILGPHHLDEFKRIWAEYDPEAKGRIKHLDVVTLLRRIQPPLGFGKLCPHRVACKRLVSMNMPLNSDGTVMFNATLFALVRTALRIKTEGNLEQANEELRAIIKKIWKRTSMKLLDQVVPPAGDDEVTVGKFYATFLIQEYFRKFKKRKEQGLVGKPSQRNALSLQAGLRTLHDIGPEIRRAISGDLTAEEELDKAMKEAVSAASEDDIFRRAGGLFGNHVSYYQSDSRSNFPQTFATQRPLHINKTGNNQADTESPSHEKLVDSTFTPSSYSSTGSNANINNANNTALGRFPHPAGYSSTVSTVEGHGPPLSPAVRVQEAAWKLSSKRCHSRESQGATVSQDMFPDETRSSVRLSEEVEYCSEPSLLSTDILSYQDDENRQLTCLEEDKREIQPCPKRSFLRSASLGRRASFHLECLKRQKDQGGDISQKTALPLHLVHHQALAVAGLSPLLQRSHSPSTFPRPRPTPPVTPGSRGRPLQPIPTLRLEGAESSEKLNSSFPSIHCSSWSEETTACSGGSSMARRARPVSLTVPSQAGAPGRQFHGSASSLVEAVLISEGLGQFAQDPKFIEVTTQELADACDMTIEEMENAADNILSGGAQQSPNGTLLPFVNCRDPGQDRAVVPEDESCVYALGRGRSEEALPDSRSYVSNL
T2 sequence (P54290 25-945 partner limits assumed, other chains not shown): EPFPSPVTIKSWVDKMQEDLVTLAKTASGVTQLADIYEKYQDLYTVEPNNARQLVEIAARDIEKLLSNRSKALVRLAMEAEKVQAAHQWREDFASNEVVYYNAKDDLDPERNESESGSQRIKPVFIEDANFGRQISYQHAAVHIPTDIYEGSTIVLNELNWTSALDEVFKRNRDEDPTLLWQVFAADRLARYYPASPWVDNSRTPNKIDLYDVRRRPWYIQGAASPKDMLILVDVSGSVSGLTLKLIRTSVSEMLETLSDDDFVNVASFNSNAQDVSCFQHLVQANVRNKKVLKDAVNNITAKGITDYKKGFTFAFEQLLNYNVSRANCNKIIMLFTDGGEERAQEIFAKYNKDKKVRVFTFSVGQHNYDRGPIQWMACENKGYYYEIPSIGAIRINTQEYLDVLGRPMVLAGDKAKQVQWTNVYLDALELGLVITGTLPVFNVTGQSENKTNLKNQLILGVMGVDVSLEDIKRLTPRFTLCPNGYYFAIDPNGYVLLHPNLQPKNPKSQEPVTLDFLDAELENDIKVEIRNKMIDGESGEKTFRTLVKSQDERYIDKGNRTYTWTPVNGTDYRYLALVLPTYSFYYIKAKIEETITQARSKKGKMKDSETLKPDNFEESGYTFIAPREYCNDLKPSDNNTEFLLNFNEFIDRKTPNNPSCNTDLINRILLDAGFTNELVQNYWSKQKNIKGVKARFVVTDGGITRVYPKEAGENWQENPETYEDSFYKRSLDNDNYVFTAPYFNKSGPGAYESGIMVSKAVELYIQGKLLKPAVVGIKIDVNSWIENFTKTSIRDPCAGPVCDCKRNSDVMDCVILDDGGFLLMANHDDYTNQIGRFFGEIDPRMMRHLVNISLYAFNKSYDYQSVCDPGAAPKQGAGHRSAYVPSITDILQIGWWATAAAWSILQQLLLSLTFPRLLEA
T2 sequence (P54290 946-1091 partner limits assumed, other chains not shown): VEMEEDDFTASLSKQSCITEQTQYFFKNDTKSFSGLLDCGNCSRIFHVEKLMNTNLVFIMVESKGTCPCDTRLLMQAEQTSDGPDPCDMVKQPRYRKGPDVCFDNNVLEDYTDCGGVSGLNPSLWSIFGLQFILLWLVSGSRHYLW

pA2 [1]: 5.54 | pKi ([2]; 25° C.): 5.54
SMILES: C1CCNC(=N[C@@H]2CCC[C@@H]2C2CCCCC2)CC1 (relative stereo) [Test Compound 12, 2-[(cis-2-cyclohexylcyclopentyl)imino]hexahydroazepine]

pA2 [1]: 4.84 | pKi ([2]; 25° C.): 5.26
SMILES: c1ccc([C@H]2CCC[C@H]2N=C2CCCCCCCN2)cc1 (relative stereo) [Test Compound 14, octahydro-2-[(cis-2-phenylcyclopentyl)imino]azonine]

pKi ([2]; 25° C.): 4.16
SMILES: c1ccc([C@H]2CCC[C@H]2N=C2CCCCCN2)cc1 (relative stereo) [Test Compound 15, hexahydro-2-[(cis-2-phenylcyclopentyl)imino]azepine]

pKi ([2]; 25° C.): 4.96
SMILES: c1ccc([C@@H]2CCC[C@@H]2N=C2CCCN2)cc1 (relative stereo) [Test Compound 16]

pA2 [1]: 5.47
SMILES: CC(N=C1CCCCCN1)c1cccc2ccccc12 (single isomer, unassigned; (+)) [Test Compound 25, (+)-hexahydro-N-[1-(1-naphthalenyl)ethyl]2H-azepin-2-imine]

pA2 [1]: 5.18
SMILES: CC(N=C1CCCCCN1)c1cccc2ccccc12 (single isomer, unassigned; (-)) [Test Compound 26, (-)-hexahydro-N-[1-(1-naphthalenyl)ethyl]2H-azepin-2-imine]

mean pA2 value (95% confidence interval), Schild plot [1]: 7.27 (6.95-8.12) | mean slope (±S.D.) of Schild plot [1]: 0.94 (0.21) | pKi ([2]; 25° C.): 6.49 | activity at 1 µM ([3]; 25° C.): 123 ± 6% | activity at 0.1 µM ([3]; 25° C.): 119 ± 6% | activity at 1 µM ([3]; 37° C.): 224 ± 14% | activity at 0.1 µM ([3]; 37° C.): 252 ± 13%
SMILES: CCCC(CN=C1CCCCCCCCCCCN1)(c1ccccc1)c1ccccc1 [Test Compound 1, N-(2,2-diphenylpentyl)azacyclotridecan-2-imine]

mean pA2 value (95% confidence interval), Schild plot [1]: 6.59 (6.33-7.17) | activity at 1 µM ([3]; 25° C.): 123 ± 10% | activity at 0.1 µM ([3]; 25° C.): 117 ± 7% | activity at 1 µM ([3]; 37° C.): 152 ± 15% | activity at 0.1 µM ([3]; 37° C.): 152 ± 9%
SMILES: c1ccc(-c2ccccc2N=C2CCCCCCCCCCCN2)cc1 [Test Compound 2, 2-(o-biphenylylimino)azacyclotridecane]

pA2 [1]: 6.07 | pKi ([2]; 25° C.): 5.92 | activity at 1 µM ([3]; 25° C.): 106 ± 4% | activity at 0.1 µM ([3]; 25° C.): 105 ± 4% | activity at 1 µM ([3]; 37° C.): 116 ± 8% | activity at 0.1 µM ([3]; 37° C.): 108 ± 7%
SMILES: C1CCCCCNC(=NC2CC3CCC2C3)CCCCC1 (stereo not shown) [Test Compound 4, 2-(2-norbornylimino)azacyclotridecane]

pA2 ([1]; listed as 5): 6.60 | activity at 1 µM ([3]; 37° C.): 122 ± 3% | activity at 0.1 µM ([3]; 37° C.): 111 ± 9%
SMILES: CCCC(CN=C1CCCCCCN1)(c1ccccc1)c1ccccc1 [Test Compound 5, 2-[(2,2-diphenylpentyl)imino]octahydroazocine]

pA2 ([1]; listed as 6): 6.64
SMILES: CCCC(CN=C1CCCCCN1)(c1ccccc1)c1ccccc1 [Test Compound 6, hexahydro-2-[(2,2-diphenylpentyl)imino]azepine]

pA2 ([1]; listed as 7): 6.15
SMILES: CCCC(CN=C1CCCCN1)(c1ccccc1)c1ccccc1 [Test Compound 7, 2-[(2,2-diphenylpentyl)imino]piperidine]

pA2 [1]: 6.63 | pKi ([2]; 25° C.): 6.72
SMILES: c1ccc(C(N=C2CCCCCCN2)C23CC4CC(CC(C4)C2)C3)cc1 (stereo not drawn) [Test Compound 8, 2-[[α-(1-adamantanyl)benzyl]imino]octahydroazocine]

SMILES: CCCCOc1ccc(C(N=C2CCCCCN2)c2ccccc2)cc1 (stereo not drawn) [Test Compound 9, 2-[(p-butoxy-α-phenylbenzyl)imino]hexahydroazepine]
pA2 [1]: 5.86 | pKi ([2]; 25° C.): 6.17

pA2 [1]: 6.33 | pKi ([2]; 25° C.): 6.08
SMILES: Clc1ccc(C(N=C2CCCCCN2)c2ccc(Cl)cc2)cc1 [Test Compound 10, 2-[(p-chloro-α-[p-chlorophenyl]benzyl)imino]hexahydroazepine]

pA2 [1]: 5.60 | pKi ([2]; 25° C.): 5.92
SMILES: FC(F)(F)c1cccc(C(N=C2CCCCCN2)c2ccccc2)c1 (stereo not shown) [Test Compound 11, hexahydro-N-[phenyl[3-(trifluoromethyl)phenyl]methyl]-2H-azepin-2-imine]

pA2 [1]: 5.47 | pKi ([2]; 25° C.): 4.70
SMILES: C1CCNC(=NC2C3CC4CC(C3)CC2C4)CC1 (stereo not shown) [Test Compound 13, 2-(2-adamantanylimino)hexahydroazepine]

mean slope (±S.D.) of Schild plot [1]: 1.00 (0.15) | activity at 1 µM ([3]; 25° C.): 83 ± 8% | activity at 0.1 µM ([3]; 25° C.): 96 ± 5% | activity at 1 µM ([3]; 37° C.): 262 ± 10% | activity at 0.1 µM ([3]; 37° C.): 218 ± 4%
SMILES: COc1ccc([C@@H]2Sc3ccccc3N(CCN(C)C)C(=O)[C@@H]2OC(C)=O)cc1 [Test Compound 17, (1)-cis-5-2-(dimethylamino)etnyl]2,3-dihydro-3-hydroxy-2-(p-methoxyphenyl)-1,5-benzothiazepin-4(5H)-one acetate, reference compound]
effect on [^3 H]nitrendipine binding [4]: enhances binding

IC50 ([2]; 25° C.): 1260 ± 90 nM | IC50 ([2]; 37° C.): 1900 ± 230 nM
SMILES: COc1cc(CN=C2NCCC2=Cc2ccc(C)cc2)ccc1O [Test Compound 19, 2-methoxy-4-[[[3-[(4-methylphenyl)methylene]-2-pyrrolidinyliden]amino]methyl]phenol]

pA2 [1]: 6.19
SMILES: c1ccc(C(CCN=C2CCCCCN2)c2ccccc2)cc1 [Test Compound 20, hexahydro-2-[3,3-diphenylpropylimino)azepine]

pA2 [1]: 6.14
SMILES: c1ccc(C(CN=C2CCCCCN2)c2ccccc2)cc1 [Test Compound 21, hexahydro-2-(2,2-diphenylethylimino)azepine]

pA2 ([1]; listed as 22): 6.31
SMILES: CCCC(CN=C1CCCCCN1)(c1ccccc1)c1ccccc1 [Test Compound 22, hexahydro-2-[(2,2-diphenylpentyl)imino]azepine]

pA2 ([1]; listed as 23): 6.04
SMILES: CCCC(CN=C1CCCCN1)(c1ccccc1)c1ccccc1 [Test Compound 23, 2-[(2,2-diphenylpentyl)imino]piperidine]

pA2 ([1]; listed as 24): 6.63
SMILES: CCCC(CN=C1CCCCCCN1)(c1ccccc1)c1ccccc1 [Test Compound 24, 2-[(2,2-diphenylpentyl)imino]octahydroazocine]

SMILES: COc1ccc(CCN(C)CCCC(C#N)(c2ccc(OC)c(OC)c2)C(C)C)cc1OC (stereo not shown) [verapamil]
effect on [^3 H]nitrendipine binding [4]: displaces [^3 H]nitrendipine in a non-competitive manner
